# In US8258104B2, “Method and composition for treating allergic diseases” (Wholesome Biopharm Pty Ltd., priority 2006, dated 2012):
# Assays:
# Assay type in all cases: in vivo, BALB/c mice
# [1] = test system: OVA-sensitized mice; assay: Airway hyper-responsiveness (AHR) to aerosolized methacholine, whole-body plethysmography (Penh); conditions: intranasal ribavirin 10 or 30 mg/ml, Mch 0-50 mg/ml, FIG. 2
# Protocol: (§1) Female BALB/c mice were obtained and maintained in the Animal Center of the College of Medicine of National Taiwan University (Taiwan, R.O.C.). Animals were used between 6 and 10 weeks of age and were age matched within each experiment. Animal experiment protocol was approved by Animal Committee of the College of Medicine of National Taiwan University (Taiwan, R.O.C.).
# Mice were randomly divided into 4 groups and sensitized by an intraperitoneal injection of OVA (10 μg), which were complexed with aluminum potassium sulfate (alum, 2 mg) on day 0. All mice were boosted with another shot of OVA (10 μg) on day 14 and day 28, respectively. The mice in the negative control group were injected with phosphate buffer solution (PBS). […] AHR for mice in each group was measured on day 41, and all mice were bled and sacrificed on day 42, when the experiment ended. […]
# The effect of ribavirin on airway responsiveness to aerosolized methacholine (Mch) in OVA-sensitized mice were assessed by the following procedures. […] Each reading was taken for 3 minutes and averaged for the entire time course after nebulization. Calculated Data were expressed as the fold increases above saline challenge baseline values using the dimensionless parameter Penh as described. […]
# [2] = test system: OVA-sensitized mice; assay: Chemokine/cytokine levels in BAL fluid by ELISA
# Protocol: as §1
# (§2) Mice were randomly divided into 4 groups and sensitized by an intraperitoneal injection of OVA (10 μg), which were complexed with aluminum potassium sulfate (alum, 2 mg) on day 0. All mice were boosted with another shot of OVA (10 μg) on day 14 and day 28, respectively. The mice in the negative control group were injected with phosphate buffer solution (PBS). As to the mice in the rest three groups, each group received 20 μl of 0, 10 or 30 mg/ml ribavirin together with intranasal challenge of 0.05 mg of OVA on days 38-40, respectively. AHR for mice in each group was measured on day 41, and all mice were bled and sacrificed on day 42, when the experiment ended. FIG. 1 illustrated the timeline of the above-identified OVA protocol used in this study.
# OVA-sensitized mice were lavage according to the procedure described above, and the levels of chemokines were assayed by an ELISA kit (R&D) in accordance with the manufacturer's instructions. Take the measurement of eotaxin as an example, the BAL fluid was collected and added to wells precoated with anti-eotaxin antibodies over night at 4° C. After incubation for 2 hours, the plates were washed and biotin-conjugated antibodies were added. After two more hours at room temperature, HRP-avidin was then added, and the OD (at 450 nm) values were converted to concentrations of eotaxin in the BALF. The level of other chemokines including KC, IL-4 and INF-γ may be measured according to similar procedures. Results were illustrated in FIG. 5.
# [3] = test system: OVA-sensitized mice; assay: Lung tissue histology (hematoxylin and eosin, light microscope); conditions: ribavirin 30 and 10 mg/ml; FIG. 4
# Protocol: as §1, §2
# After the lavage, the lungs were immediately removed and fixed in 10% neutral-buffered formalin, routinely processed, and embedded in paraffin wax. […]
# [4] = test system: OVA-sensitized mice; assay: Cellular composition of bronchoalveolar lavage (BAL) fluid (airway eosinophilic inflammation); conditions: ribavirin 10 or 30 mg/ml intranasal
# Protocol: as §1, §2
# Whether ribavirin could alleviate airway inflammation in OVA-sensitized mice was determined by analyzing the cellular composition in the bronchoalveolar lavage (BAL) fluid of the sensitized mice 48 hours a the last challenge. In brief, all groups of OVA sensitized mice were bled from the retro-orbital venous plexus and sacrificed. The lung was immediately lavaged via the trachea cannula with 3×1 ml of HBSS, free of ionized calcium and magnesium. The lavage fluid was centrifuged at 400 xg for 10 minutes at 4° C. After washing, the cells were resuspended in 1 ml HBSS and total cells counts were determined by use of a hemocytometer. Cytocentrifuged preparations were stained with Liu's stain for different cell counts. A minimum of 200 cells was counted and classified as macrophages, lymphocytes, neutrophils and eosinophils, based on standard morphological criteria. Results were illustrated in FIG. 3. […] On the contrary, treatment of ribavirin (10 or 30 mg/ml) decreased not only the total cell counts (FIG. 3A), but also the number of respective cell types including monocytes, neutrophils, and eosinophiles (FIG. 3B).
smiles,measurement,setting,value
NC(=O)c1ncn([C@@H]2O[C@H](CO)[C@@H](O)[C@H]2O)n1 [ribavirin],airway responsiveness to Mch (Penh),[1],inhibited the increase in airway responsiveness to Mch
same,level of IF-γ in BAL fluid,[2]; FIG. 5a,not affected
same,level of IL-4 in BAL fluid,[2]; FIG. 5b,not affected
same,level of KC in BAL fluid,[2]; FIG. 5c,significant reduced
same,level of eotaxin in BAL fluid,[2]; FIG. 5d,significant reduced
same,infiltration of cells in the lung,[3],efficiently inhibit the infiltration of the cells
same,pathological damage within the lung,[3],reduce the pathological damage within the lung
same,total cell counts in BAL fluid,"[4]; 48 hours after last challenge, FIG. 3A",decreased
same,number of eosinophils in BAL fluid,[4]; FIG. 3B,decreased
same,number of monocytes in BAL fluid,[4]; FIG. 3B,decreased
same,number of neutrophils in BAL fluid,[4]; FIG. 3B,decreased
